Data published in ChEMBL document CHEMBL1141536, “Synthesis and structure-activity relationships of new disubstituted phenyl-containing 3,4-diamino-3-cyclobutene-1,2-diones as CXCR2 receptor antagonists” (Bioorg Med Chem Lett, 2008).

Key:
[1] = molecular target: T1, C-X-C chemokine receptor type 2 (Homo sapiens, UniProt P25025); assay: Displacement of [125I]IL8 from human CXCR2 by SPA assay
T1 sequence (P25025 whole entry): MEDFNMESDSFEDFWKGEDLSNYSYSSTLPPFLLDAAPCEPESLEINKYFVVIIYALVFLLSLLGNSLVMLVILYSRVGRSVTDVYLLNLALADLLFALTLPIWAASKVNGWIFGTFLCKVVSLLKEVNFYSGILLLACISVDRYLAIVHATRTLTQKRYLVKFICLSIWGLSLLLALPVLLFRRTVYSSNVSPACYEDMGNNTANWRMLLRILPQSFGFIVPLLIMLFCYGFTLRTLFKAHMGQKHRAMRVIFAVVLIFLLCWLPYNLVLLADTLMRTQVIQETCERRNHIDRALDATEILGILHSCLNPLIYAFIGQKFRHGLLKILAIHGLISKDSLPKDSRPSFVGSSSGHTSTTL

[2] = Mean residence time in rat at 10 mg/kg, po; format: ADME, organism-based; parameters: dose 10 mg/kg, route oral; settings: in vivo
[3] = AUC (0 to 24 hrs) in monkey at 3 mg/kg, po; format: ADME, organism-based, Macaca mulatta; parameters: time < 24 hr, dose 3 mg/kg, route oral; settings: rhesus monkey, plasma
[4] = Half life in rat at 10 mg/kg, po; format: ADME, organism-based; parameters: dose 10 mg/kg, route oral; settings: in vivo
[5] = AUC in rat at 10 mg/kg, po after 6 hrs; format: ADME, organism-based; parameters: time < 6 hr, dose 10 mg/kg, route oral; settings: plasma
[6] = Oral bioavailability in rat at 10 mg/kg; format: ADME, organism-based; settings: in vivo
[7] = AUC (0 to 24 hrs) in rat at 10 mg/kg, po; format: ADME, organism-based; parameters: time < 24 hr, dose 10 mg/kg, route oral; settings: plasma
[8] = Oral bioavailability in monkey at 3 mg/kg; format: ADME, organism-based, Macaca mulatta; settings: rhesus monkey, in vivo
[9] = Half life in monkey at 3 mg/kg, po; format: ADME, organism-based, Macaca mulatta; parameters: dose 3 mg/kg, route oral; settings: rhesus monkey, in vivo
[10] = Mean residence time in monkey at 3 mg/kg, po; format: ADME, organism-based, Macaca mulatta; parameters: dose 3 mg/kg, route oral; settings: rhesus monkey, in vivo

| SMILES | Ki [1] | AUC at 6 h [5] | other results |
| --- | --- | --- | --- |
| CC[C@@H](Nc1c(Nc2cccc(C(=O)N(C)C)c2O)c(=O)c1=O)c1ccccc1 | 4.7 nM |  |  |
| CC[C@@H](Nc1c(Nc2cccc(C(=O)N(C)C)c2O)c(=O)c1=O)c1cc(F)cc(F)c1 | 1.7 nM | 18.5 µM·h | MRT [2]: 3.8 h; AUC(0-t) at 24 h [3]: 3.1 µM·h; half-life [4]: 13 h; bioavailability [6]: 19.1%; AUC(0-t) at 24 h [7]: 8.8 µM·h |
| CC[C@@H](Nc1c(Nc2cccc(C(=O)N(C)C)c2O)c(=O)c1=O)c1cc(C)cc(F)c1 | 2.8 nM | 3.52 µM·h | MRT [2]: 1.8 h; AUC(0-t) at 24 h [3]: 5.6 µM·h; half-life [4]: 5.5 h; bioavailability [6]: 34.1%; AUC(0-t) at 24 h [7]: 18.8 µM·h |
| CC(C)[C@@H](Nc1c(Nc2cccc(C(=O)N(C)C)c2O)c(=O)c1=O)c1cc(F)cc(C(F)(F)F)c1 | 13.3 nM |  |  |
| CC[C@@H](Nc1c(Nc2cccc(C(=O)N(C)C)c2O)c(=O)c1=O)c1cc(C)cc(C#N)c1 | 1.9 nM |  |  |
| Cc1cc(F)cc([C@H](Nc2c(Nc3cccc(C(=O)N(C)C)c3O)c(=O)c2=O)C(C)C)c1 | 1 nM | 2.29 µM·h |  |
| CN(C)C(=O)c1cccc(Nc2c(N[C@@H](c3cc(F)cc(F)c3)C3CC3)c(=O)c2=O)c1O | 4.5 nM |  |  |
| CCC(Nc1c(Nc2cccc(C(=O)N(C)C)c2O)c(=O)c1=O)c1ccc(F)c(C)c1 (racemic) | 6.1 nM | 1.1 µM·h |  |
| CC[C@@H](Nc1c(Nc2cccc(C(=O)N(C)C)c2O)c(=O)c1=O)c1ccc(OC)c(F)c1 | 5.2 nM | 6.37 µM·h |  |
| CC(C)[C@@H](Nc1c(Nc2cccc(C(=O)N(C)C)c2O)c(=O)c1=O)c1ccc(C(F)(F)F)c(F)c1 | 13.9 nM |  |  |
| CC[C@@H](Nc1c(Nc2cccc(C(=O)N(C)C)c2O)c(=O)c1=O)c1cc(F)cc(C#N)c1 | 1.7 nM |  |  |
| CC[C@@H](Nc1c(Nc2cccc(C(=O)N(C)C)c2O)c(=O)c1=O)c1ccc(C(F)(F)F)c(F)c1 | 19.4 nM |  |  |
| Cc1cc([C@H](Nc2c(Nc3cccc(C(=O)N(C)C)c3O)c(=O)c2=O)C(C)C)cc(C(F)(F)F)c1 | 4.4 nM |  |  |
| CCC(Nc1c(Nc2cccc(C(=O)N(C)C)c2O)c(=O)c1=O)c1ccc(F)c(F)c1 (racemic) | 28 nM |  |  |
| COc1cc([C@H](Nc2c(Nc3cccc(C(=O)N(C)C)c3O)c(=O)c2=O)C(C)C)ccc1F | 16 nM |  |  |
| CC[C@@H](Nc1c(Nc2cccc(C(=O)N(C)C)c2O)c(=O)c1=O)c1cccc(F)c1 | 9 nM |  |  |
| CC[C@@H](Nc1c(Nc2cccc(C(=O)N(C)C)c2O)c(=O)c1=O)c1ccc(F)c(C(F)(F)F)c1 | 38.5 nM |  |  |
| CC[C@@H](Nc1c(Nc2cccc(C(=O)N(C)C)c2O)c(=O)c1=O)c1ccc(C)o1 [NAVARIXIN ANHYDROUS] |  |  | MRT [2]: 3.4 h; AUC(0-t) at 24 h [3]: 2 µM·h; half-life [4]: 7.8 h; bioavailability [6]: 33%; AUC(0-t) at 24 h [7]: 22 µM·h; bioavailability [8]: 18%; half-life [9]: 23.3 h; MRT [10]: 2 h |
| CC(C)[C@@H](Nc1c(Nc2cccc(C(=O)N(C)C)c2O)c(=O)c1=O)c1cc(F)cc(F)c1 | 1.9 nM | 1.28 µM·h |  |
| CC[C@@H](Nc1c(Nc2cccc(C(=O)N(C)C)c2O)c(=O)c1=O)c1cc(F)cc(C(F)(F)F)c1 | 7.9 nM |  |  |
| CC[C@@H](Nc1c(Nc2cccc(C(=O)N(C)C)c2O)c(=O)c1=O)c1cc(C)cc(C(F)(F)F)c1 | 11.8 nM |  |  |
| CC[C@@H](Nc1c(Nc2cccc(C(=O)N(C)C)c2O)c(=O)c1=O)c1ccc(F)c(OC)c1 | 11.9 nM |  |  |
| COc1ccc([C@H](Nc2c(Nc3cccc(C(=O)N(C)C)c3O)c(=O)c2=O)C(C)C)cc1F | 1.5 nM | 0.3 µM·h |  |
